Values after ≈ are worked out from the molar mass of the structure shown.
Legend:
[1] = Lipophilicity, logD of compound at pH 7.5 by RP-HPLC analysis; format: physicochemical; settings: buffer
[2] = Thermodynamic solubility of compound at pH 6.5; format: physicochemical; settings: buffer; for solubility thermodynamic: read-out: Therm_solubility
[3] = Oral bioavailability in Wistar rat at 2 mg/kg; format: ADME, organism-based; settings: in vivo
[4] = Volume of distribution at steady state in Wistar rat at 0.5 mg/kg, iv; format: ADME, organism-based; settings: in vivo, read-out: Vdss
[5] = AUC in Wistar rat at 0.5 mg/kg, iv; format: ADME, organism-based; settings: in vivo
[6] = Apparent permeability across apical to basolateral side in human Caco2 cells at 2 uM after 2 hrs by LC/MS-MS analysis; format: ADME, cell-based; settings: Caco-2
[7] = Volume of distribution at steady state in Wistar rat at 1 mg/kg, iv; format: ADME, organism-based; settings: in vivo, read-out: Vdss
[8] = AUC in Wistar rat at 1 mg/kg, iv; format: ADME, organism-based; settings: in vivo
[9] = Unbound drug level in plasma of CFA induced C57BL/6N mouse at […], po after 1 hr; format: ADME, organism-based; settings: in vivo
[10] = Unbound drug level in plasma of CFA induced C57BL/6N mouse at 25 mg/kg, po after 1 hr; format: ADME, organism-based; settings: in vivo
[11] = Unbound drug level in plasma of CFA induced C57BL/6N mouse at 50 mg/kg, po after 1 hr; format: ADME, organism-based; settings: in vivo
[12] = Unbound drug level in plasma of CFA induced C57BL/6N mouse at 50 mg/kg, po after 80 mins; format: ADME, organism-based; settings: in vivo

| logD [1] | solubility thermodynamic [2] | bioavailability [3] | Papp A→B at 2 h, 2 µM [6] | Compound | further results |
| --- | --- | --- | --- | --- | --- |
| 3.3 |  |  |  | NS(=O)(=O)c1cc(NC(=O)Cc2ccccc2C(F)(F)F)ccc1Oc1cccc(Cl)c1 |  |
| 2.2 | 21 µg/mL (≈ 47.8 µM) | 21% | 5.3 ×10⁻⁶ cm/s | NS(=O)(=O)c1cc(NC(=O)Cc2ccccc2Cl)ccc1OCC1CCOCC1 | Vd [4]: 1.23 L/kg; AUC [5]: 0.37 kg·h/L |
|  | 0.7 µg/mL (≈ 1.49 µM) |  |  | NS(=O)(=O)c1cc(NC(=O)Cc2c(F)cccc2Cl)ccc1Oc1cccc(Cl)c1 |  |
| 3 | 7 µg/mL (≈ 15.5 µM) |  |  | NS(=O)(=O)c1cc(NC(=O)Cc2ccccc2Cl)ccc1Oc1cccc(Cl)c1 |  |
| 2.2 | 24 µg/mL (≈ 52.5 µM) | 44% | 4.3 ×10⁻⁶ cm/s | NS(=O)(=O)c1cc(NC(=O)Cc2cc(F)ccc2Cl)ccc1OCC1CCOCC1 | Vd [4]: 0.82 L/kg; AUC [5]: 1.11 kg·h/L |
|  | 1 µg/mL (≈ 2 µM) |  |  | NS(=O)(=O)c1cc(NC(=O)Cc2ccccc2Cl)ccc1Oc1ccc(-c2nccs2)cc1 |  |
|  |  |  |  | NS(=O)(=O)c1cc(NC(=O)Cc2ccccc2Cl)ccc1OCc1ccccc1 | Therm_solubility [2]: Insoluble |
| 2.8 | 16 µg/mL (≈ 38.4 µM) | 43% | 13.2 ×10⁻⁶ cm/s | NS(=O)(=O)c1cc(NC(=O)Cc2ccccc2)ccc1Oc1cccc(Cl)c1 [BAY-1797] | Vd [7]: 2.77 L/kg; AUC [8]: 1.06 kg·h/L; Cp(f) [9]: 186 nM; Cp(f) [10]: 374 nM; Cp(f) [11]: 672 nM; Cp(f) [12]: 548 nM |

Reference: ChEMBL document CHEMBL4321858 (J Med Chem, 2019)
